Data set [1] addresses Rho-associated protein kinase 1 (Homo sapiens, UniProt Q13464). Kind of data set: Inhibition of ROCK1 (unknown origin) using biotin as substrate incubated for 1 hr by HTRF assay.
The target in data set [2] is Rho-associated protein kinase 2 (Homo sapiens, UniProt O75116). Kind of data set: Inhibition of ROCK2 (unknown origin) using biotin as substrate incubated for 1 hr by HTRF assay. For orientation: Time-resolved FRET reads energy transfer from a long-lived donor to a nearby acceptor.
Data set [3] is described as follows: Ocular toxicity in C57BL/6J mouse assessed as effect on conjunctival hyperemia at 0.26% solution administered via topical instillation and measured at 1 to 4 hrs post instillation. The conditions noted are these: in vivo, topical_or_ocular, time 1-4 hrs, route top.
The nature of data set [4]: Ocular toxicity in New Zealand white albino rabbit assessed as effect on ocular irritation at 0.579% solution administered via topical instillation and measured at 1 to 4 hrs post instillation by draize's test. More on the design: species or system Oryctolagus cuniculus. The conditions noted are these: in vivo, topical_or_ocular, time 1-4 hrs, route top.
For data set [5], the system named is HTM. Kind of data set: Inhibtion of mitochondrial respiration in HTM cells assessed as oxygen consumption rate by measuring decrease in basal respiration at 10 uM incubated for 1 hr by Seahorse XF24 extracellular flux analyzer. It counts as functional, cell-based. The conditions noted are these: Homo sapiens.
For data set [6], the system named is HTM. Kind of data set: Inhibtion of mitochondrial respiration in HTM cells assessed as oxygen consumption rate by measuring decrease in ATP production at 10 uM incubated for 1 hr by Seahorse XF24 extracellular flux analyzer. It counts as functional, cell-based. The settings on record: Homo sapiens.
Data set [7] has as its system HTM. Kind of data set: Inhibtion of mitochondrial respiration in HTM cells assessed as repression of oxygen consumption rate at 10 uM incubated for 1 hr by Seahorse XF24 extracellular flux analyzer. It counts as functional, cell-based. The conditions noted are these: Homo sapiens.
In data set [8] the test system is HTM. Kind of data set: Inhibtion of mitochondrial respiration in HTM cells assessed as oxygen consumption rate by measuring decrease in maximal respiration at 10 uM incubated for 1 hr by Seahorse XF24 extracellular flux analyzer. The conditions noted are these: Homo sapiens. It counts as functional, cell-based.
Data set [9] deals with HTM. Kind of data set: Induction of NO release in HTM cells assessed as increase in fluorescence intensity by DAF-FM DA dye based flow cytometry analysis. It counts as functional, cell-based. The conditions noted are these: Homo sapiens. In general terms: Flow cytometry measures light scatter and fluorescence of single cells or particles in a stream.
In data set [10] the test system is HTM. Kind of data set: Induction of NO release in HTM cells assessed as increase in positive area by DAF-FM DA dye based flow cytometry analysis. The settings on record: Homo sapiens. It counts as functional, cell-based.
The subject of data set [11] is HTM. Kind of data set: Induction of reversible F-actin depolymerization in HTM cells assessed as irregular arrangement of fiber bundles at 10 uM incubated for 1 hr and further incubated for 4 hrs in drug free medium by rhodamine phalloidin staining based confocal scanning microscopic analysis. It counts as cell-based. The settings on record: Homo sapiens.
Data set [12] relates to HTM. Kind of data set: Effect on MLC expression in HTM cells assessed as reduction in phosphorylated MLC/MLC ratio at 10 uM incubated for 1 hr by densitometry analysis. It counts as functional, cell-based. The settings on record: Homo sapiens.
Data set [13] has as its system HTM. Kind of data set: Effect of compound on intracellular cGMP concentration in HTM cells assessed as increase in cGMP level at 10 uM incubated for 24 hrs by ELISA. It counts as functional, cell-based. The settings on record: Homo sapiens. On the technique in general: An ELISA detects its analyte on a solid surface through an enzyme-linked reagent.
The subject of data set [14] is HTM. Kind of data set: Downregulation of phosphorylated MLC expression in HTM cells at 10 uM incubated for 1 hr by Western blotting analysis. It counts as functional, cell-based. The conditions noted are these: Homo sapiens.
The test system of data set [15] is Mus musculus. Kind of data set: Antiglaucoma activity in microspheres induced chronic ocular hypertension C57BL/6J mouse model assessed as reduction in intraocular pressure at 0.2% solution administered via topical instillation for three times per day and measured at 1 to 6 hrs post instillation by ophthalmotonometer. It counts as functional, organism-based. The settings on record: route top, time 1-6 hrs.

Data set [16] in a line: Ocular toxicity in C57BL/6J mouse assessed as effect on conjunctival hyperemia at 0.2% solution administered via topical instillation and measured at 1 to 4 hrs post instillation. The settings on record: in vivo, topical_or_ocular, time 1-4 hrs, route top.
Data set [17] deals with HTM. Kind of data set: Inhibtion of mitochondrial respiration in HTM cells assessed as oxygen consumption rate by measuring decrease in coupling efficiency at 10 uM incubated for 1 hr by Seahorse XF24 extracellular flux analyzer. The conditions noted are these: Homo sapiens. It counts as functional, cell-based.
Data set [18] relates to Mus musculus. Kind of data set: Antiglaucoma activity in microspheres induced chronic ocular hypertension C57BL/6J mouse model assessed as reduction in intraocular pressure at 0.26% solution administered via topical instillation for three times per day and measured at 1 to 6 hrs post instillation by ophthalmotonometer. It counts as functional, organism-based. The settings on record: route top, time 1-6 hrs.

Data set [19] has as its system Mus musculus. Kind of data set: Antiglaucoma activity in microspheres induced chronic ocular hypertension C57BL/6J mouse model assessed as increase in number of RGCs in retina at 0.26% solution administered via topical instillation and measured after 10 days by immunostaining based confocal microscopic analysis. It counts as functional, organism-based. The settings on record: route top, time 10.0 day.

In data set [20] the test system is Mus musculus. Kind of data set: Antiglaucoma activity in microspheres induced chronic ocular hypertension C57BL/6J mouse model assessed as reduction in contrast sensitivity threshold at 0.26% solution administered via topical instillation and measured after 10 days by optokinetic reflex test. The conditions noted are these: route top, time 10.0 day. It counts as functional, organism-based.

Data set [21] concerns HTM. Kind of data set: Inhibtion of mitochondrial respiration in HTM cells assessed as oxygen consumption rate by measuring decrease in proton leak at 10 uM incubated for 1 hr by Seahorse XF24 extracellular flux analyzer. It counts as functional, cell-based. The settings on record: Homo sapiens.
Data set [22] deals with Mus musculus. Kind of data set: Antiglaucoma activity in microspheres induced chronic ocular hypertension C57BL/6J mouse model assessed as increase in visual acuity under maximum contrast condition at 0.26% solution administered via topical instillation and measured after 10 days by optokinetic reflex test. It counts as functional, organism-based. The conditions noted are these: route top, time 10.0 day.

Data set [23] can be described thus: Ocular toxicity in C57BL/6J mouse assessed as effect on conjunctival hyperemia at 0.07% solution administered via topical instillation and measured at 1 to 4 hrs post instillation in presence of ripasudil. The settings on record: in vivo, topical_or_ocular, time 1-4 hrs, route top.
Data set [24] relates to Mus musculus. Kind of data set: Antiglaucoma activity in microspheres induced chronic ocular hypertension C57BL/6J mouse model assessed as reduction in intraocular pressure at 0.07% solution administered via topical instillation for three times per day and measured at 1 to 6 hrs post instillation in presence of ripasudil by ophthalmotonometer. It counts as functional, organism-based. The conditions noted are these: route top, time 1-6 hrs.

These results are taken from ChEMBL document CHEMBL5137113, “Identification of Nitric Oxide-Donating Ripasudil Derivatives with Intraocular Pressure Lowering and Retinal Ganglion Cell Protection Activities” (J Med Chem, 2022).

As usually defined, the IC50 is the concentration that gives 50% inhibition. A high value points to weaker potency.

Each structure is given as a SMILES string. Active and inactive are the calls of the source.

Chain of Rho-associated protein kinase 1 (Q13464 whole entry): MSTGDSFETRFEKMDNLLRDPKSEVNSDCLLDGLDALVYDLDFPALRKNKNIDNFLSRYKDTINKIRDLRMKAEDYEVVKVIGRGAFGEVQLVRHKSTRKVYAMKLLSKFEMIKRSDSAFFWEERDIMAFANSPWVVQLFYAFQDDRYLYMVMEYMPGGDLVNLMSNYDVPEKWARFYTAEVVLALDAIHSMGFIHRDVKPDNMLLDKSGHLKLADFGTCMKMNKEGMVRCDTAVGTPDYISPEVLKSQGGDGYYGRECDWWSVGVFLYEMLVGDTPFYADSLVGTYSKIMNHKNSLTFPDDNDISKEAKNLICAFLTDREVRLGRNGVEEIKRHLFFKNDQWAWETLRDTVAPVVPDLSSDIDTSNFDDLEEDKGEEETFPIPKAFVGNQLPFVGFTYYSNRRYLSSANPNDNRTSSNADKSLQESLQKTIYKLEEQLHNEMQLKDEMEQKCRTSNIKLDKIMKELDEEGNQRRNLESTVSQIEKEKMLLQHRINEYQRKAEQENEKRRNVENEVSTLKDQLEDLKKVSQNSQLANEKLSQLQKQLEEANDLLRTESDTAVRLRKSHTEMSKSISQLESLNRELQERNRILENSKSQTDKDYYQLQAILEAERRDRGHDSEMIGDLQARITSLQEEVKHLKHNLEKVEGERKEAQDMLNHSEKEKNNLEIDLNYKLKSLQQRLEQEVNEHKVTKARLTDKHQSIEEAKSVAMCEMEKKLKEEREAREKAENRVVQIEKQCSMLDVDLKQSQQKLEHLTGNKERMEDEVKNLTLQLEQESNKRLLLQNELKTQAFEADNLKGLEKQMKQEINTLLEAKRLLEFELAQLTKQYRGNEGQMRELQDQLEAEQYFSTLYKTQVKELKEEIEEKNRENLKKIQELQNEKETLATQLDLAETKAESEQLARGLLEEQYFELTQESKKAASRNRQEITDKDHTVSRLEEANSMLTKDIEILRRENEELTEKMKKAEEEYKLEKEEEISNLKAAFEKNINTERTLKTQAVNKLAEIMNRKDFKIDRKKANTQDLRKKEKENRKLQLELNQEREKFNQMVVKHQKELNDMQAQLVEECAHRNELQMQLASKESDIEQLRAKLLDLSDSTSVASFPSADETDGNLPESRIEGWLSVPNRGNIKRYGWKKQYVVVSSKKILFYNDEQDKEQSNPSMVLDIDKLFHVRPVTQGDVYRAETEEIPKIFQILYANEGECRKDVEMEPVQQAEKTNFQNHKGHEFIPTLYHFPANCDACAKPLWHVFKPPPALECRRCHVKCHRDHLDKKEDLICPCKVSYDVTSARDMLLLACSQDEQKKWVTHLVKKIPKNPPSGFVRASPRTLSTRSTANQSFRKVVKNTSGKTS
Chain of Rho-associated protein kinase 2 (O75116 whole entry): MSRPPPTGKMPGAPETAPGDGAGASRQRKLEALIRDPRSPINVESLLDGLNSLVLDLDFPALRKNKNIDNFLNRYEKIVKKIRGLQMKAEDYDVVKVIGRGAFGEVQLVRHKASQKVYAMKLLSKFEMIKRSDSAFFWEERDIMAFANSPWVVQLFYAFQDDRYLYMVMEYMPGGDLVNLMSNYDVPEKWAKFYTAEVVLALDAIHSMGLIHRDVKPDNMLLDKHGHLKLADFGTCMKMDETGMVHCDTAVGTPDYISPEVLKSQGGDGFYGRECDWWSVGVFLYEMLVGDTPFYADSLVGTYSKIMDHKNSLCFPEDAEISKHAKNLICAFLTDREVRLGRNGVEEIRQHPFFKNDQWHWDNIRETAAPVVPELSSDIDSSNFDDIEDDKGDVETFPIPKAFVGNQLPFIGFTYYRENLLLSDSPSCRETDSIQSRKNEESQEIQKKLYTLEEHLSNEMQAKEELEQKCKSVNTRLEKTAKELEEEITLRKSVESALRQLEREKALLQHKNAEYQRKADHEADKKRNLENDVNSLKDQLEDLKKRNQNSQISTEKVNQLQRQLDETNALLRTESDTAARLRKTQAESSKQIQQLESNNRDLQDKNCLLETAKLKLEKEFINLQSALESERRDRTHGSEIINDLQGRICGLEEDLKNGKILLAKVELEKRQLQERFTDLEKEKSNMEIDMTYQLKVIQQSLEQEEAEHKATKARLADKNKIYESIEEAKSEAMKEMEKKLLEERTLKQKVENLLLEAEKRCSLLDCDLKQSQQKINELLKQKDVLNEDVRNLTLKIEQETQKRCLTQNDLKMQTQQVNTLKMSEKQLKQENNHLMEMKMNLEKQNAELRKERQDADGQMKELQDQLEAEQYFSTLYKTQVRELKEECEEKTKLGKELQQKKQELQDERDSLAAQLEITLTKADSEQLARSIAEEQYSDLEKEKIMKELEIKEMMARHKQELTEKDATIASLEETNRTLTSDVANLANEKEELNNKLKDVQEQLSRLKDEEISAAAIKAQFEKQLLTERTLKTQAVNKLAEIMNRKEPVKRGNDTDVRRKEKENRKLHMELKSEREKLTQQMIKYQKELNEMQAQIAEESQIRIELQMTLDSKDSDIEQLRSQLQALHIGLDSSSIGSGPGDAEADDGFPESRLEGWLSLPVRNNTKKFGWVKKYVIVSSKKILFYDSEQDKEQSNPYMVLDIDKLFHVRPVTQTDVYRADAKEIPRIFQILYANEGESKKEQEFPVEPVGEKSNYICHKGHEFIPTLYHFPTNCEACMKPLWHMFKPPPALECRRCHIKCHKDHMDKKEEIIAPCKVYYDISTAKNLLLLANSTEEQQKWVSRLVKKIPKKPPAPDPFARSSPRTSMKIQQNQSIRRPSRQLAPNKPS

On to `C[C@H]1CN(C(=O)OCCCCO[N+](=O)[O-])CCCN1S(=O)(=O)c1cccc2cncc(F)c12.Cl`, for which the IC50 in [1] was 34.2 nM; in data set [2], 16.6 nM. The Activity entry in data set [3] and in data set [4] was “Non-Toxic” each time.
For the molecule `CCCCOC(=O)N1CCCN(S(=O)(=O)c2cccc3cncc(F)c23)[C@@H](C)C1`, the outcome in the data set on HTM [5], in the data set with HTM [6], with HTM [7] and in the data set with HTM [8] was Active.
For `C[C@H]1CN(C(=O)OCCCCO[N+](=O)[O-])CCCN1S(=O)(=O)c1cccc2cncc(F)c12` [listing 1 of 2 here], the figures for the half-maximal inhibitory concentration (IC50) in data set [1] and in data set [2] were 58.3 nM and 47.4 nM, respectively.
Turning to `C[C@H]1CN(C(=O)O[C@@H]2CO[C@H]3[C@@H]2OC[C@@H]3O[N+](=O)[O-])CCCN1S(=O)(=O)c1cccc2cncc(F)c12`, the result in the data set with HTM [9], in the data set on HTM [10], in the data set on HTM [11], with HTM [12], in the data set on HTM [13] and in the data set with HTM [14] was Active. For the same molecule, the IC50 in data set [1] was determined as 53.6 nM; in data set [2], 19.5 nM.
Regarding `C[C@H]1CN(C(=O)OCCCCCO[N+](=O)[O-])CCCN1S(=O)(=O)c1cccc2cncc(F)c12`, the outcome in the data set on HTM [9], with HTM [10], in the data set on HTM [11], in the data set on HTM [12], in the data set on HTM [13] and with HTM [14] was Active. The results for the IC50 in data set [1] and in [2] were 44.6 nM and 25.2 nM, respectively.
On to `C[C@H]1CNCCCN1S(=O)(=O)c1cccc2cncc(F)c12.Cl.O.O` [RIPASUDIL HYDROCHLORIDE DIHYDRATE], for which the result in the data set with HTM [5], in the data set on Mus musculus [15], in the data set with HTM [11], with HTM [6], in the data set with HTM [12] and in the data set on HTM [14] was Active. In data set [2], this molecule displayed an IC50 of 21.4 nM. Besides, the Activity result in [16] was “Non-Toxic”.
Regarding `C[C@H]1CN(C(=O)OCCCCO[N+](=O)[O-])CCCN1S(=O)(=O)c1cccc2cncc(F)c12` [listing 2 of 2 here], the result with HTM [17], in the data set with HTM [9], in the data set with HTM [10], in the data set with HTM [5], in the data set with HTM [11] and in the data set with Mus musculus [18] was Active. The result in the data set on HTM [6], in the data set on HTM [12], with Mus musculus [19], with HTM [7], in the data set with HTM [13] and in the data set with HTM [8] was Active. The result in the data set with Mus musculus [20], in the data set with HTM [14], with HTM [21] and in the data set on Mus musculus [22] was Active.
As to `C[C@H]1CN(C(=O)OCCCO[N+](=O)[O-])CCCN1S(=O)(=O)c1cccc2cncc(F)c12`, the result with HTM [9], with HTM [10], in the data set on HTM [11], in the data set on HTM [12], in the data set on HTM [13] and in the data set on HTM [14] was Active. For the same molecule, the IC50 was 104 nM in data set [1] and 25.1 nM in [2].
For `O=[N+]([O-])OCCCCO`, the Activity result in data set [23] was “Non-Toxic”. For the same molecule, in the data set with Mus musculus [24], the result was Active.
In the case of `C[C@H]1CN(C(=O)OCCO[N+](=O)[O-])CCCN1S(=O)(=O)c1cccc2cncc(F)c12`, the result in the data set with HTM [9], in the data set with HTM [10], in the data set on HTM [11], in the data set on HTM [12], in the data set on HTM [13] and in the data set with HTM [14] was Active. For the same molecule, the IC50 in [1] amounted to 47.3 nM; in data set [2], 58.4 nM.
